These results are taken from patent US12552811B2, “Immunosuppressant, and preparation method therefor and use thereof” (Abbisko Therapeutics Co., Ltd., priority 2020, dated 2026).

The target of series [1] is interaction between PD-1 and PD-L1 (Homo sapiens (Human), UniProt Q9NZQ7). As to the kind of experiment: PD1-PDL1 HTRF binding activity test. Particulars: Cisbio PD-1/PD-L1 binding assay kit. The procedure:
I. PD1-PDL1 HTRF Binding Activity Test
The effect of compounds of the examples of the present invention on the interaction between PD-1 and PD-L1 was determined by the PD-1/PD-L1 binding assay kit from Cisbio (#64ICP01PEG or 64ICP01PEH). The detailed experimental process was as follows: • 1) Pre-diluted compound solution, 4 μL of Tag1-PD-L1 and 4 μL of Tag2-PD1 were added to each well of a 384-well plate: • 2) After the mixture was incubated at room temperature for 15 min, 5 μL of anti-Tag1-Eu3+ antibody and 5 μL of anti-Tag2-XL665 antibody were then added; • 3) After incubated for 2 hrs at room temperature or overnight at 4° C., plates were read on Envision of Pelkin Elmer; and readings at 665 nm and 620 nm were recorded, and the ratio of the two readings was taken as a reading for each well; • 4) The reading of each well after compound treatment was compared with the reading of DMSO treated wells to obtain the percent inhibition of the compound; • 5) IC50 values of compounds and positive compounds of the examples of the present invention were determined by non-linear regression analysis of percent inhibition at different compound concentrations. II. Jurkat Reporter Gene Cellular Assay
For orientation: TR-FRET usually uses a lanthanide donor and a delayed reading to cut background.

A short description of series [2]: Jurkat reporter gene cellular assay. The series is classed as cell-based. Particulars: Homo sapiens; Jurkat/NF-κB-luc/PD1 + Raji-PD-L1 coculture, OKT3 1 μg/mL, 6 hrs, activation fold; read-out: Cell Activity EC50. The procedure: The effect of compounds of the examples of the present invention and positive compounds on the interaction between PD-1 and PD-L1 expressed on cell surfaces, and the related influence on T cell functions, were determined by a Jurkat reporter gene cellular assay.
Briefly, the reporter gene plasmid of NF-κB-luc and the plasmid of human PD-1 were transfected into Jurkat cells to establish a stably transfected cell line capable of stably expressing both PD-1 and NF-κB-Luc reporter genes; the expression level of PD-1 on the cell surface was confirmed by flow cytometry; and the expression of the reporter gene was confirmed via the response of the reporter gene stimulated by OKT-3 and Raiji cells.
In addition, the plasmid of human PD-L1 was transfected into Raji cells to obtain a cell line capable of stably expressing PD-L1. Jurkat/NF-κB-luc/PD1 cells and Raji-PD-L1 cells were then cocultured and stimulated with OKT-3. On this basis, the compounds were added, and the enhancement of the signal pathway of T cell activation by the inhibitory effect of the compounds on the interaction between PD-1 and PD-L1 was evaluated by readings of reporter gene responses. The specific experimental process was as follows: • 1) 30 μL of compound or antibody solution was added to each well of a white 96-well plate (coming, 3610) at different diluted concentrations, and 10 μL of OKT3 (Biolegend, 317326) was then added (the final concentration of OKT3: 1 μg/mL); • 2) 20 μL of Raji-PD-L1 cell suspension was added to each well with 5*10^4 cells for each well, and was incubated in an incubator for 20 min: • 3) 20 μL of Jurkat/NF-κb-luc/PD-1 cell suspension was added to each well with 5*10^4 cells for each well, and well mixed, and 6 hrs later, Bright-glo (Promega, E2620) was applied and plates were read on Envision; • 4) The reading of each well treated with the compound was compared with the reading of each well treated with DMSO to obtain the activation fold of the compound; • 5) EC50 values of compounds and positive compounds of the examples of the present invention were determined by non-linear regression analysis of activation folds at different compound concentrations.

The nature of series [3]: Pharmacokinetic assay in mice. It is filed as in vivo. Particulars: male, mouse; ICR mice, PO 10 mg/kg, plasma. The procedure: III. Pharmacokinetic Assay in Mice
The purpose of this study was to study the pharmacokinetic behaviors of some compounds of the present invention, and administration routes were: per oral administration (PO) to ICR mice at a dose of 10 mg/kg.
The compounds used in this test came from the compounds of the specific examples of the present invention.
ICR mice, male, N=3, with the original source of Shanghai Sippr-BK Laboratory Animal Co. Ltd.
2.3 Preparation and Administration of Drug
The compounds were weighed, and dissolved in a solvent of 0.5% SDS+0.5% CMCNa. The mixture solutions were mixed well by shaking and ultrasonic treatment to obtain colorless clear solutions. The solutions were orally administered to nine mice after an overnight fast. The dosage of administration was 10 mg/kg.
• 1) With about 90 μL/time point, blood was drawn from the submaxillary vein, and heparin sodium was added for anticoagulation. The blood samples were placed onto the ice, and were centrifuged (centrifugation conditions: 8000 r/min, 6 min, 2-8° C.) within 1 hr to obtain plasmas. • 2) The time points for blood sampling were at 0 hr, 0.25 hr, 0.5 hr, 1 hr, 2 hrs, 4 hrs, 6 hrs, 8 hrs and 24 hrs after administration. The samples were stored in a refrigerator at −20° C. • 3) 40 μL of plasma sample was added to 160 μL of cold acetonitrile containing an internal standard, and the mixture solution was vortexed for 3 min and centrifuged at 11,000 r/min for 5 min. • 4) 100 μL of supernate was taken and added to 100 μL of water, and 5 μL of the sample was taken and analyzed by LC/MS/MS.
The compounds from some representative examples of the present invention were administered and tested according to the above method, and their prototype compounds were detected.

interaction between PD-1 and PD-L1, sequence (Q9NZQ7 19-238): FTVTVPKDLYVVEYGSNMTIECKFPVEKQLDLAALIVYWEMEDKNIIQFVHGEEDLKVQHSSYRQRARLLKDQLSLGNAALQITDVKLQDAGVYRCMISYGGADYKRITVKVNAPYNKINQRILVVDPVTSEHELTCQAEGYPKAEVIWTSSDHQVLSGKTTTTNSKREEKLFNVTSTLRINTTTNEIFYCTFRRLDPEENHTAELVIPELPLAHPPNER

For orientation: IC50 means the concentration that inhibits the measured activity by half. What is called EC50 is the concentration needed to bring the measured effect to its halfway point. For orientation: AUC(0-t) means exposure summed from dosing to a finite time, without extrapolation to infinity. Higher therefore signals high exposure. Usually Cmax stands for the maximum level reached in the sampled fluid or tissue. Usually MRT stands for the average time that molecules of a dose stay in the body. By Tmax is commonly meant the time at which the peak concentration occurs. The term half-life denotes the time needed for the level to fall by half in the phase considered. As to `CC(C)N1CCc2cc(C(=O)Nc3cccc(-c4cccc(NC(=O)c5nc6c(n5C)CCN(CCC57CCC(C(=O)O)(CC5)C7)C6)c4Cl)c3Cl)ncc2C1` [Example 1, 4-(2-(2-((2,2′-dichloro-3′-(7-isopropyl-5,6,7,8-tetrahydro-2,7-naphthyridine-3-carboxamido)-[1,1′-biphenyl]-3-yl)carbamoyl)-1-methyl-1,4,6,7-tetrahydro-5H-imidazo[4,5-c]pyridin-5-yl)ethyl)bicyclo[2.2.1]heptane-1-carboxylic acid], the IC50 in series [1] worked out at 0.73 nM. For the same molecule, in series [2], the 50% effective concentration (EC50) stood at 53.8 nM. Moreover, in series [3], the AUC(0-t) was 18400 ng·h/mL, the Cmax was determined as 2850 ng/mL, the MRT stood at 4.9 h and the Tmax came to 0.5 h. Besides, in series [3], the half-life was 3.6 h.
As for `CN1CCc2cc(C(=O)Nc3cccc(-c4cccc(NC(=O)c5nc6c(n5C)CCN(CCC57CCC(C(=O)O)(CC5)C7)C6)c4Cl)c3Cl)ncc2C1` [Example 2, 4-(2-(2-((2,2′-dichloro-3′-(7-methyl-5,6,7,8-tetrahydro-2,7-naphthyridine-3-carboxamido)-[1,1′-biphenyl]-3-yl)carbamoyl)-1-methyl-1,4,6,7-tetrahydro-5H-imidazo[4,5-c]pyridin-5-yl)ethyl)bicyclo[2.2.1] heptane-1-carboxylic acid], the IC50 in series [1] came out at 0.178 nM. For the same molecule, in series [2], the EC50 worked out at 50 nM. For the same molecule, in series [3], the AUC(0-t) was 1820 ng·h/mL, the Cmax stood at 2320 ng/mL, the MRT amounted to 1.8 h and the Tmax turned out to be 0.083 h. Further, in series [3], the half-life was 4 h.
`CC(C)N1CCc2cc(/C(F)=C/c3cccc(-c4cccc(NC(=O)c5nc6c(n5C)CCN(CCC57CCC(C(=O)O)(CC5)C7)C6)c4Cl)c3Cl)ncc2C1` [Example 25, (Z)-4-(2-(2-((2,2′-dichloro-3′-(2-fluoro-2-(7-isopropyl-5,6,7,8-tetrahydro-2,7-naphthyridin-3-yl)vinyl)-[1,1′-biphenyl]-3-yl)carbamoyl)-1-methyl-1,4,6,7-tetrahydro-5H-imidazo[4,5-c]pyridin-5-yl)ethyl) bicyclo[2.2.1]heptane-1-carboxylic acid]: the IC50 in series [1] amounted to 0.358 nM. Moreover, the 50% effective concentration (EC50) in series [2] was 86.3 nM.
In turn, `CC(C)N1CCc2cc(C(=O)Nc3cccc(-c4cccc(NC(=O)c5nc6c(n5C)CCN(CCC57CCC(C(=O)O)(CC5)CC7)C6)c4Cl)c3Cl)ncc2C1` [Example 58, 4-(2-(2-((2,2′-dichloro-3′-(7-isopropyl-5,6,7,8-tetrahydro-2,7-naphthyridine-3-carboxamido)-[1,1′-biphenyl]-3-yl)carbamoyl)-1-methyl-1,4,6,7-tetrahydro-5H-imidazo[4,5-c]pyridin-5-yl)ethyl)bicyclo [2.2.2]octane-1-carboxylic acid] registered an IC50 in series [1] of 0.73 nM. Moreover, in series [2], the EC50 turned out to be 53.5 nM. Besides, in series [3], the AUC(0-t) was 13900 ng·h/mL, the concentration peaked (Cmax) at 1630 ng/mL, the MRT came to 5.7 h and the time of peak concentration (Tmax) stood at 1 h. Moreover, in series [3], the half-life was 3.8 h.
As to `CC(C)N1CCc2cc(C(=O)Nc3cccc(-c4cccc(NC(=O)c5nc6c(n5C)CCN(CCC57C8C9C5C5C7C8C95C(=O)O)C6)c4Cl)c3Cl)ncc2C1` (stereo not shown) [Example 59, 4-(2-(2-((2,2′-dichloro-3′-(7-isopropyl-5,6,7,8-tetrahydro-2,7-naphthyridine-3-carboxamido)-[1,1′-biphenyl]-3-yl)carbamoyl)-1-methyl-1,4,6,7-tetrahydro-5H-imidazo[4,5-c]pyridin-5-yl)ethyl)cubane-1-carboxylic acid], the IC50 in series [1] is 0.904 nM. In addition, the EC50 in series [2] was 33.8 nM. Besides, in series [3], the area under the curve AUC(0-t) worked out at 2300 ng·h/mL, the highest level (Cmax) was 616 ng/mL, the MRT was found to be 2.4 h and the Tmax is 0.5 h. In series [3], this molecule showed a half-life of 1.2 h.
As to `CC(C)N1CCc2cc(C(=O)Nc3cccc(-c4cccc(NC(=O)c5nc6c(n5C)CCN(CCC57CC(C(=O)O)(C5)C7)C6)c4Cl)c3Cl)ncc2C1` [Example 60, 3-(2-(2-((2,2′-dichloro-3′-(7-isopropyl-5,6,7,8-tetrahydro-2,7-naphthyridine-3-carboxamido)-[1,1′-biphenyl]-3-yl)carbamoyl)-1-methyl-1,4,6,7-tetrahydro-5H-imidazo[4,5-c]pyridin-5-yl)ethyl)bicyclo [1.1.1]pentane-1-carboxylic acid], in series [1], the IC50 came out at 0.253 nM. In series [2], the EC50 stood at 29.4 nM. In series [3], the AUC(0-t) was found to be 4250 ng·h/mL, the concentration peaked (Cmax) at 2420 ng/mL, the MRT worked out at 2 h and the Tmax was determined as 0.5 h. This molecule showed a half-life in series [3] of 1.6 h.
